Numbers after ± are expanded uncertainties.
Conditions: Crystal; for molar entropy: 100 kPa, Small (less than 1 g) adiabatic calorimetry; for mass density: 101.33 kPa, X-ray diffraction

## O[C@H]1[C@H](O)[C@@H](O)[C@H](O)[C@@H](O)[C@H]1O [cis-1,2,3,5-trans-4,6-cyclohexanehexol]
5 K
  molar entropy: 0.0237 ± 0.024 J/K/mol
6 K
  molar entropy: 0.0492 ± 0.024 J/K/mol
7 K
  molar entropy: 0.091 ± 0.025 J/K/mol
8 K
  molar entropy: 0.1546 ± 0.026 J/K/mol
9 K
  molar entropy: 0.2451 ± 0.029 J/K/mol
10 K
  molar entropy: 0.3742 ± 0.036 J/K/mol
15 K
  molar entropy: 1.491 ± 0.1 J/K/mol
20 K
  molar entropy: 3.261 ± 0.21 J/K/mol
25 K
  molar entropy: 5.458 ± 0.34 J/K/mol
30 K
  molar entropy: 7.964 ± 0.5 J/K/mol
35 K
  molar entropy: 10.69 ± 0.66 J/K/mol
40 K
  molar entropy: 13.58 ± 0.83 J/K/mol
45 K
  molar entropy: 16.57 ± 0.32 J/K/mol
50 K
  molar entropy: 19.63 ± 0.36 J/K/mol
60 K
  molar entropy: 25.97 ± 0.46 J/K/mol
70 K
  molar entropy: 32.56 ± 0.56 J/K/mol
80 K
  molar entropy: 39.37 ± 0.67 J/K/mol
90 K
  molar entropy: 46.36 ± 0.49 J/K/mol
100 K
  molar entropy: 53.48 ± 0.54 J/K/mol
110 K
  molar entropy: 60.72 ± 0.59 J/K/mol
120 K
  molar entropy: 68.03 ± 0.65 J/K/mol
130 K
  molar entropy: 75.4 ± 0.7 J/K/mol
140 K
  molar entropy: 82.82 ± 0.75 J/K/mol
150 K
  molar entropy: 90.26 ± 0.8 J/K/mol
  mass density: 1577 ± 6 kg/m3
160 K
  molar entropy: 97.71 ± 0.86 J/K/mol
170 K
  molar entropy: 105.2 ± 0.9 J/K/mol
175 K
  mass density: 1574 ± 6 kg/m3
180 K
  molar entropy: 112.6 ± 1 J/K/mol
190 K
  molar entropy: 120.1 ± 1 J/K/mol
200 K
  molar entropy: 127.6 ± 1.1 J/K/mol
  mass density: 1574 ± 6 kg/m3
210 K
  molar entropy: 135 ± 1.1 J/K/mol
220 K
  molar entropy: 142.4 ± 1.2 J/K/mol
225 K
  mass density: 1575 ± 6 kg/m3
230 K
  molar entropy: 149.9 ± 1.2 J/K/mol
240 K
  molar entropy: 157.3 ± 1.3 J/K/mol
250 K
  molar entropy: 164.8 ± 1.3 J/K/mol
  mass density: 1572 ± 6 kg/m3
260 K
  molar entropy: 172.2 ± 1.4 J/K/mol
270 K
  molar entropy: 179.6 ± 1.5 J/K/mol
273.15 K
  molar entropy: 182 ± 1.5 J/K/mol
275 K
  mass density: 1570 ± 6 kg/m3
280 K
  molar entropy: 187.1 ± 1.5 J/K/mol
290 K
  molar entropy: 194.5 ± 1.6 J/K/mol
298.15 K
  molar entropy: 200.6 ± 1.6 J/K/mol
300 K
  molar entropy: 202 ± 1.6 J/K/mol
  mass density: 1569 ± 6 kg/m3
310 K
  molar entropy: 209.4 ± 1.7 J/K/mol
320 K
  molar entropy: 216.9 ± 1.7 J/K/mol
325 K
  mass density: 1569 ± 6 kg/m3
330 K
  molar entropy: 224.3 ± 1.8 J/K/mol
340 K
  molar entropy: 231.8 ± 1.8 J/K/mol
350 K
  mass density: 1566 ± 6 kg/m3
375 K
  mass density: 1561 ± 6 kg/m3
400 K
  mass density: 1559 ± 6 kg/m3
425 K
  mass density: 1555 ± 6 kg/m3
450 K
  mass density: 1553 ± 6 kg/m3

— the NIST ThermoML archive (doi:10.1016/j.jct.2017.08.028)
